Experiments:
Format in all cases: protein-complex assay
[1] = molecular target: T1, Ecdysone receptor (Nezara viridula, UniProt E5L6Y0+E5L6Y1); assay: Displacement of [3H]PonA from recombinant Nezara viridula EcR10
T1 sequence (E5L6Y1 whole entry): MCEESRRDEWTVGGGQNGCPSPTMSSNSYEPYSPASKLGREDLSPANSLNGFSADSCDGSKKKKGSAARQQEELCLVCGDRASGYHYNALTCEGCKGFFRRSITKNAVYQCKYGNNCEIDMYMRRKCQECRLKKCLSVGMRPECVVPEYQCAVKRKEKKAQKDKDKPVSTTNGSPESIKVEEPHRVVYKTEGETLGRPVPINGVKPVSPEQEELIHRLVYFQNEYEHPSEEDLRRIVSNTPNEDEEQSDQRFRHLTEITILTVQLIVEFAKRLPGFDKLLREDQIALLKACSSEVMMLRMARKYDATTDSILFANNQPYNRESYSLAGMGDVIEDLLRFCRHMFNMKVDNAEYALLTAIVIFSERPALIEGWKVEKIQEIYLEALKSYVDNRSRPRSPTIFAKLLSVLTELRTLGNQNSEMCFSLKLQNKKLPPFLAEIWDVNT
T1 sequence (E5L6Y0 whole entry): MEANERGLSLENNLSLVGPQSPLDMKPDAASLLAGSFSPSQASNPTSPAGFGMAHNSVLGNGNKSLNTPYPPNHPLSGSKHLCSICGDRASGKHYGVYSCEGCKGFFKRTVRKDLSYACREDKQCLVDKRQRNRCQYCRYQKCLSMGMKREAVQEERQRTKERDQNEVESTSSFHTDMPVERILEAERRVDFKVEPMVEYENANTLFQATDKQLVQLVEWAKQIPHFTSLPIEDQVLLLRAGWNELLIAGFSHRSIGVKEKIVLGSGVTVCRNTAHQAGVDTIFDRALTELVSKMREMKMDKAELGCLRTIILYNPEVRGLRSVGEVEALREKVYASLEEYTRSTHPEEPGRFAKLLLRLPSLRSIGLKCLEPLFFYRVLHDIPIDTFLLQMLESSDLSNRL

[2] = molecular target: T1, Ecdysone receptor; assay: Displacement of [3H]PonA from recombinant Nezara viridula EcR11
[3] = molecular target: T2, Ecdysone receptor (Spodoptera frugiperda, UniProt Q8MWR1+Q8MWR2); assay: Binding affinity to Spodoptera frugiperda (fall armyworm) EcR
T2 sequence (Q8MWR2 whole entry): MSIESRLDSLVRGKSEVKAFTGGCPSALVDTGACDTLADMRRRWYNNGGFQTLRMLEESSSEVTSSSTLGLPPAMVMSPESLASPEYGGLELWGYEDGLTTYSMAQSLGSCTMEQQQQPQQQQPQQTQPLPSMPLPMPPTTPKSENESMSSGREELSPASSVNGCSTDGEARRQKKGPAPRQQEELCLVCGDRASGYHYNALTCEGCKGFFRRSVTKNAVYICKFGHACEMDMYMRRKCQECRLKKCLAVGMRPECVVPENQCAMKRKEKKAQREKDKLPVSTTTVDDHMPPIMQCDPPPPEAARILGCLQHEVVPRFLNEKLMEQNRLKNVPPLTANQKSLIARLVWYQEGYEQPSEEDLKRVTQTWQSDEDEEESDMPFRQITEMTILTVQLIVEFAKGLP
T2 sequence (Q8MWR1 whole entry): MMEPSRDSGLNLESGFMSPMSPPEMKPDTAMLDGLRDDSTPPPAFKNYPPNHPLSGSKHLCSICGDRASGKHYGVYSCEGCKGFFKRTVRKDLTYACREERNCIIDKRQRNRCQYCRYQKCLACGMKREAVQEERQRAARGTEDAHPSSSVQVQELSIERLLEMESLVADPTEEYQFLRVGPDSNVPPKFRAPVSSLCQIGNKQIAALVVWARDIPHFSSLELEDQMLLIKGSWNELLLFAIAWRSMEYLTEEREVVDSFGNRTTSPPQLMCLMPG

[4] = molecular target: T3, Ecdysone receptor (Drosophila melanogaster, UniProt P20153+P34021); assay: Binding affinity to Drosophila melanogaster EcR
T3 sequence (P34021 whole entry): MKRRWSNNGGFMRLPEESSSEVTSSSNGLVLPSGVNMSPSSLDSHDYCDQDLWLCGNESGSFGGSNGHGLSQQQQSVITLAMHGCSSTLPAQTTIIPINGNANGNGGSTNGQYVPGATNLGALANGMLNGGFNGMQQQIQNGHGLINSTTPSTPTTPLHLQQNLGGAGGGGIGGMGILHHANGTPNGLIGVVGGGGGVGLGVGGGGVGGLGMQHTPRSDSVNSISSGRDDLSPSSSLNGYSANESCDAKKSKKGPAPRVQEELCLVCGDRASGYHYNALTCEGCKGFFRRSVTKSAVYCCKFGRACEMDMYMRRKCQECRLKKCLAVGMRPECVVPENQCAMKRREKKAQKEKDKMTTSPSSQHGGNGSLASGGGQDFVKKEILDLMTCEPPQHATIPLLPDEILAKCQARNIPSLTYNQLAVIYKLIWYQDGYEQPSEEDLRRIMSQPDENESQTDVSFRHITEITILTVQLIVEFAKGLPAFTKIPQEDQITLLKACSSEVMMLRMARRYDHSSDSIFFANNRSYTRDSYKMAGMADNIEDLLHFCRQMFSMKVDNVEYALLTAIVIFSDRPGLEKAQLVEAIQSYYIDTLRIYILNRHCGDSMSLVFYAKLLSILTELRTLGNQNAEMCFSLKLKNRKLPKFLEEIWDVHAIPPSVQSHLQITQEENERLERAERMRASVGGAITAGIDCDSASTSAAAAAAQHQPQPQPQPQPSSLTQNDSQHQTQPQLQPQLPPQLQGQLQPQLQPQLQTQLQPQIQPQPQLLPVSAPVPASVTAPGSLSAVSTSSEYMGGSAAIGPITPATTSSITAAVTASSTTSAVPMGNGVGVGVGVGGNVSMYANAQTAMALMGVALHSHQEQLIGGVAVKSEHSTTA
T3 sequence (P20153 whole entry): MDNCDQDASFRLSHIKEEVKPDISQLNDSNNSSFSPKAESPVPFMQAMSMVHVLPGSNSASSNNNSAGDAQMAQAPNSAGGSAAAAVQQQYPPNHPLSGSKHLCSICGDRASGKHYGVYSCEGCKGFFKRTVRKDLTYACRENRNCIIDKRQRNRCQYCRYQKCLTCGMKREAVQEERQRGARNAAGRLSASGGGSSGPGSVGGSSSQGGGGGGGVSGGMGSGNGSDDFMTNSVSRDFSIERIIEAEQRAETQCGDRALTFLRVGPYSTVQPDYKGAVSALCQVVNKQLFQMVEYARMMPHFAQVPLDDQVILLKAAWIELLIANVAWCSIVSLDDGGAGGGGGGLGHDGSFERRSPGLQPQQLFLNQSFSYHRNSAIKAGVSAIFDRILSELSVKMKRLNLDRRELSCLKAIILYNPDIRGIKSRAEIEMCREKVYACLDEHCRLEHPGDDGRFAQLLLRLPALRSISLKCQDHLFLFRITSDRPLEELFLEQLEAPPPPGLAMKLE

[5] = molecular target: T4, Ecdysone receptor (Leptinotarsa decemlineata, UniProt Q4W6C8+Q4W6D0); assay: Binding affinity to Leptinotarsa decemlineata EcR
T4 sequence (Q4W6D0 whole entry): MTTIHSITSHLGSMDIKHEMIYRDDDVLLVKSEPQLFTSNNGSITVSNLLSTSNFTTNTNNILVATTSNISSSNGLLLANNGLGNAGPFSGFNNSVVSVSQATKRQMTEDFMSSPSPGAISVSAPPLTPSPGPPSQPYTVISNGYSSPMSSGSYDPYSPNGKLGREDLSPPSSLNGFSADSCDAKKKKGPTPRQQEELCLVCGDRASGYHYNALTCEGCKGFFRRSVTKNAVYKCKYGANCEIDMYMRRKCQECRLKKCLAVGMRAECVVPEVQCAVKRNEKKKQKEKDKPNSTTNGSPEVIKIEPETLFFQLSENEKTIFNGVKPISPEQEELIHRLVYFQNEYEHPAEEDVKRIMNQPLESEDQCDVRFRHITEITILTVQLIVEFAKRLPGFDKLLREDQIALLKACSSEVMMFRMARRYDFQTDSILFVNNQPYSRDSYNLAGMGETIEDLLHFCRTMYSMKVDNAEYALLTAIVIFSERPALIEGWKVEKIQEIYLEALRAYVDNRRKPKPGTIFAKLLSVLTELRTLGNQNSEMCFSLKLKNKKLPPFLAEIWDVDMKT
T4 sequence (Q4W6C8 whole entry): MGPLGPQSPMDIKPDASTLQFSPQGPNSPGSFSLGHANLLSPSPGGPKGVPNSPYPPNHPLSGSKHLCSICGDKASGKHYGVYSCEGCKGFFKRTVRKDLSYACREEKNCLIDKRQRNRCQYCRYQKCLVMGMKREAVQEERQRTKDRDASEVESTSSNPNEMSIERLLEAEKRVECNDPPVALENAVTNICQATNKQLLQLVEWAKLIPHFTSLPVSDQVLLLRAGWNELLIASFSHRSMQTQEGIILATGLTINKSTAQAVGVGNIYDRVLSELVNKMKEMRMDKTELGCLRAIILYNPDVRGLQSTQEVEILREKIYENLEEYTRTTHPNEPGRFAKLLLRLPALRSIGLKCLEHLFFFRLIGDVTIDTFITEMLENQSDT

[6] = molecular target: T1, Ecdysone receptor; assay: Binding affinity to Nezara viridula EcR

CC(CO)CC[C@@H](O)[C@](C)(O)[C@H]1CC[C@@]2(O)C3=CC(=O)[C@@H]4C[C@@H](O)[C@@H](O)C[C@]4(C)[C@H]3CC[C@]12C (stereo not given in full) [INOKOSTERONE]
IC50 [1]: 8000 nM
Ki [1]: 6700 nM
IC50 [2]: 7000 nM
Ki [2]: 6000 nM

CC(C)CC[C@@H](O)[C@](C)(O)[C@H]1CC[C@@]2(O)C3=CC(=O)[C@]4(O)C[C@@H](O)[C@@H](O)C[C@]4(C)[C@H]3[C@H](O)C[C@]12C [MURISTERONE A]
IC50 [1]: 130 nM
Ki [1]: 100 nM
IC50 [2]: 150 nM
Ki [2]: 100 nM

C[C@H](C[C@@H](O)[C@](C)(O)[C@H]1CC[C@@]2(O)C3=CC(=O)[C@@H]4C[C@@H](O)[C@@H](O)C[C@]4(C)[C@H]3CC[C@]12C)C(C)(C)O [MAKISTERONE A]
IC50 [3]: 389 nM
IC50 [4]: 1380 nM
IC50 [5]: 1740 nM
IC50 [6]: 1380 nM

CC(C)CC[C@@H](O)[C@](C)(O)[C@H]1CC[C@@]2(O)C3=CC(=O)[C@@H]4C[C@@H](O)[C@@H](O)C[C@]4(C)[C@H]3CC[C@]12C [PONASTERONE A]
IC50 [1]: 280 nM
Ki [1]: 200 nM
IC50 [2]: 250 nM
Ki [2]: 200 nM

C[C@H]([C@H](O)CCC(C)(C)O)[C@H]1CC[C@@]2(O)C3=CC(=O)[C@@H]4C[C@@H](O)[C@@H](O)C[C@]4(C)[C@H]3CC[C@]12C [ECDYSONE]
IC50 [1]: 60000 nM
Ki [1]: 50400 nM
IC50 [2]: 60000 nM
Ki [2]: 51100 nM

From ChEMBL document CHEMBL3045439, “Isoforms of the heteropteran Nezara viridula ecdysone receptor: protein characterisation, RH5992 insecticide binding and homology modelling” (Pest Manag Sci, 2011)
